In brackets after ≈: the same amount, converted by molar mass.
Key:
COX-2 = molecular target: T1, COX-2 (Mus musculus, UniProt Q05769); experiment: Evaluation of COX-2 activity: PGE2 formation in aspirin-treated, LPS-stimulated mouse peritoneal macrophages; type: cell-based
T1 sequence (Q05769 18-604): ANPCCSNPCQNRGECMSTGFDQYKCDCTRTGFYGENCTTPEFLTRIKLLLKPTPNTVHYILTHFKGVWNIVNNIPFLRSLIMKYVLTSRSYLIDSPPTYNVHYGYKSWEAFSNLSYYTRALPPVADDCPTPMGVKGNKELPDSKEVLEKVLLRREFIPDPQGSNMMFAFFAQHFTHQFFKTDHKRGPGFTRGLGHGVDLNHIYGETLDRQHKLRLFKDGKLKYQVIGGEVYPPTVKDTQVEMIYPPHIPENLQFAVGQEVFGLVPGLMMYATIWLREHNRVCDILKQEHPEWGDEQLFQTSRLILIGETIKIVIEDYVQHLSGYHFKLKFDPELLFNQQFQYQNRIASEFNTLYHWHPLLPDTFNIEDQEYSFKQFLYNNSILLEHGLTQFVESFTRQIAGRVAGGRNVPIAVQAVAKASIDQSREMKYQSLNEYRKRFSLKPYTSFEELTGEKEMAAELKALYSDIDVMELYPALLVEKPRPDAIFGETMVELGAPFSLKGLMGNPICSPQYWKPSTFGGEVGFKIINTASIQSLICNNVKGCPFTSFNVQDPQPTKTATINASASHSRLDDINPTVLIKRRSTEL
How it was run: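 PGE2 output, quantified by radio- or enzyme-immunoassay, was read after 10 min exposure of cells to compound with 10 μM arachidonic acid. Cells were mouse peritoneal macrophages, COX-1 knocked out with 500 μM aspirin and COX-2 induced by 10 μg/ml LPS over 16 h. IC50 derived from 4–5 concentrations.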

[1] = system: male Sprague-Dawley (SD) rats; experiment: Carrageenan-induced foot edema in rats (CFE); type: in vivo; details: oral dose 3 mg/kg body weight, rat, paw volume 3 hours after Carrageenan
Procedure: An appropriate amount of a compound of this invention suspended in 1% methylcellulose (MC) solution was administered to male Sprague-Dawley (SD) rats weighing 150˜200 g by oral gavage. The volume of the administered vehicle for a compound of this invention was controlled to be smaller than 10 ml/kg body weight of the animal. One hour later, 0.1 ml of 1% Carrageenan saline solution was directly injected into the right paw of the rats to induce edema in the paw. The paw volumes at 0 hour and at 3 hours after the injection of Carrageenan were measured by using a displacement plethysmometer (Ugo Basile, Italy). The paw volumes were used to calculate % inhibition of CFE by an amount of a compound of this invention according to the following equation.
% Inhibition of CFE=(1−Δtreated/Δcontrol)×100
wherein Δtreated=[paw volume at three hours after the Carrageenan injection−paw volume right after Carrageenan injection] for a drug-administered rat, and Δcontrol=[paw volume at three hours after the Carrageenan injection−paw volume right after Carrageenan injection] for a rat without drug administration.
In order to determine the inhibitory activity of a compound of this invention at a dose, usually 5 to 8 animals were used both for drug-treated group and for control group.

male SD rats = experiment: Antiinflammatory potency by adjuvant arthritis (AA); type: in vivo; details: daily oral dose day 14 to day 22, rat
Procedure: Arthritis was induced in male SD rats weighing 180-200 g by subcutaneous injection of Mycobacterium butyricum mixed in 0.1 ml of incomplete Freund's adjuvanat into the base of the tail. The foot volumes were measured using a displacement plethysomometer 14 days after the injection of the adjuvant. Animals with paw volumes greater than the normal paw volumes (without the adjuvant treatment) by 0.37 ml were selected, and then randomized. A designated daily dose of a compound of this invention, which was suspended in 1% aqueous methylcellulose solution, was administered to the randomized rats with arthritis by oral gavage daily once beginning on day 14 after the injection of the adjuvant. The administration of the compound continued till day 22 after the injection of the adjuvant, and the paw volumes were measured on daily basis using a displacement plethysmometer.
% Inhibition of AA=(1−Δtreated/Δcontrol)×100
wherein Δtreated=[(paw volume at day 22)/(paw volume at day 14)−1] for a drug-administered rat, and Δcontrol=[(paw volume at day 22)/(paw volume at day 14)−1] for a rat without drug administration.
ED50 value was determined b a dose-response curve for each compound.

Row | IC50, μg/ml COX-2 (COX-2) | melting point | SMILES | % Inhibition (CFE) [1] | Adjuvant Arthritis ED50 (male SD rats)
1 | 0.02 µg/mL (≈ 0.0555 µM) | 178 to 179 °C | CC1(C)OC(c2ccc(S(C)(=O)=O)cc2)=C(c2cccc(F)c2)C1=O [Example 4, 2,2-Dimethyl-4-(3-fluorophenyl)-5-{4-(methylsulfonyl)phenyl}-3(2H)-furanone] | 36% | 0.07 mg/kg body weight
2 | 0.014 µg/mL (≈ 0.0371 µM) | 194 to 195 °C | CC1(C)OC(c2ccc(S(N)(=O)=O)cc2)=C(c2cccc(Cl)c2)C1=O [Example 126] | 39% | 0.03 mg/kg body weight
3 | 0.0067 µg/mL (≈ 0.0185 µM) | – | CC1(C)OC(c2ccc(S(N)(=O)=O)cc2)=C(c2cccc(F)c2)C1=O [Example 129, 5-{4-(aminosulfonyl)phenyl}-2,2-dimethyl-4-(3-fluorophenyl)-3(2H)-furanone] | 47% | 0.02 mg/kg body weight
4 | 0.03 µg/mL (≈ 0.0791 µM) | 95 to 97 °C | CC1(C)OC(c2ccc(S(N)(=O)=O)cc2F)=C(c2ccc(F)cc2)C1=O [Example 334] | 37% | 0.09 mg/kg body weight
5 | 0.05 µg/mL (≈ 0.132 µM) | 141 to 142 °C | CC1(C)OC(c2ccc(S(C)(=O)=O)cc2)=C(c2cc(F)cc(F)c2)C1=O [Example 11, 4-(3,5-Difluorophenyl)-2,2-dimethyl-5-{4-(methylsulfonyl)phenyl}-3(2H)-furanone] | – | 0.03 mg/kg body weight
